The test system of this series is UGT2B. Description: in vitro. As to conditions: for inhibition at 60 min: inhibition rate on the metabolism of nalbuphine in microsome. On the procedure:
In the following experiment, 27 different kinds of CHEs and 10 different excipients were used as UGT2B inhibitor in this invention. These CHEs are pure compounds available commercially, and were purchased from Sigma Chemical Co., Nacalai Tesque (Kyoto, Japan) and Indofine Chemical Co., Inc. (Somerville, N.J.). These UGT2B inhibitors are dissolved in alcohol at the concentration of 1, 10, 100 μM for the following experiment.
These excipients are dissolved in water and make up to 0.5%, 5%, 50% (wt %, w/v) for the following experiment. (Note: BRIJ is a registered trademark of ICI Americas, Inc.; Pluronic is a registered trademark of BASF Corporation.)
The Sprague-Dawley male rats, weighted 300-400 g are used as model animals in these experiments. The microsome is prepared as follows: • i. Sacrifice a rat after 12-16 hours fasting, take its liver; wipe dry the liver and weigh it. • ii. Add 300% (by volume) of cold 0.3M sucrose solution, and homogenize the liver. • iii. Centrifuge the homogenized liver suspension at 9000×g speed (KS-800, Kubota, made in Japan) for 10 min at 4° C. Collect the supernatant. • iv. Centrifuge the supernatant at 105,000×g speed (L8-60M, Beckman, made in USA) for 60 min at 4° C. • v. Remove the supernatant, add 0.3M sucrose (of the same volume) and repeat the homogenization. The homogenized liver suspension is the microsome. Store the microsome at −70° C.
Thaw the microsome before use. Add 5 μl/ml BRIJ®35 (Fisher et al. 2000, Drug Metabolism & Disposition. 28(5):560-6) into microsome by a ratio of microsome:BRIJ®35=8:1 (v/v).
The protein amount is determined as follows: • i. Take 0.1 ml microsome and dilute to 5 ml 0.85% NaCl (50-fold dilution, v/v). Take 0.2 ml of the diluted microsome and place it in a capped test tube (triple experiments). Separately, replacing microsome with 0.2 ml NaCl as the control. • ii. Add 2.2 ml Biuret regent (SIGMA, 690-A) into each test tube, mix well and store at room temperature for 10 min. • iii. Add 0.1 ml folin regent (SIGMA, 690-A), mix immediately, and store at room temperature for 30 min. Measure the absorbance at 550 nm wave length within the 30 min. Measure the concentration of protein in microsome based on the standard curve generated by various bovine albumin concentration and absorbance. 4. The Measurement of the Inhibition of UGT2B Activity in vitro • i. […] Mix solution (A) and 17 μl solution (B) thoroughly, place in a 37° C. water bath and shake at 125 rpm for 60 min. • iii. Add 1 ml ACN to interrupt the reaction. • iv. Centrifuge at 130,000×g speed at 4° C. for 5 min, and • v. […] 5.
Set the Ultra-violet detector's (SPD-10A, Shimadzu, Kyoto, made in Japan) wave length to 210 nm.
Those CHEs are commercially available pure compounds, acquired from Sigma Chemical Co., Nacalai Tesque (Kyoto, Japan) and […] (Somerville, N.J.). Their categories, names, sources, and chemical compositions are described in Table 5.

Setting [1] is: male, Sprague-Dawley, rat, % Inhibition (Mean ± SD).
[2] abbreviates: male, Sprague-Dawley, rat, 60 min, 8.5 μM.
Setting [3] is: male, Sprague-Dawley, rat, 60 min, 85 μM.
Where [4] appears, read: male, Sprague-Dawley, rat, 60 min, 850 μM.

Molecules are shown by their SMILES.

As usually defined, the inhibition is the drop in the measured response relative to a control, in per cent.

`Oc1cc(O)c2c(c1)OC(c1ccc(O)c(O)c1)[C@@H](O)C2` (single isomer, unassigned; (+)) [(+)-catechin, (+)-Catechin]: under setting [1], the inhibition at 60 min, 8.5 μM was -68.4 ± 7.34%; the inhibition at 60 min, 85 μM is -54.8 ± 9.38%; the inhibition at 60 min, 850 μM was -65.3 ± 47%.

For the compound `Oc1cc(O)c2c(c1)OC(c1ccc(O)c(O)c1)[C@@H](O)C2` (single isomer, unassigned; (+)) [(+)-epicatechin, (+)-Epicatechin], the “% Inhibition (Mean ± SD)” value reads like this: under setting [2], −32.553 ± 1.578%; under setting [3], −47.075 ± 0.533%; under setting [4], −8.118 ± 1.256%.

Consider `C=C(C)C1CC=C(C)CC1` (single isomer, unassigned; (+)) [(+)-limonene, (+)-Limonene], for which, under setting [1], the inhibition at 60 min, 8.5 µM is 18.3 ± 0.793%; the inhibition at 60 min, 85 µM amounted to 45.3 ± 7.84%; the inhibition at 60 min, 850 µM stood at 44.2 ± 2.28%. Moreover, the inhibition at 60 min (male, Sprague-Dawley, rat) was not below 30%.

Regarding `Oc1cc(O)c2c(c1)OC(c1ccc(O)c(O)c1)[C@@H](O)C2` (single isomer, unassigned; (-)) [(−)-epicatechin, (−)-Epicatechin], the “% Inhibition (Mean ± SD)” value by setting is: under setting [2], −28.68 ± 17.634%; under setting [3], −23.53 ± 27.304%; under setting [4], −48.35 ± 39.354%.

As to `CC(=O)OCCCc1ccccc1` [3-phenylpropyl acetate, 3-Phenylpropyl Acetate], under setting [1], the inhibition at 60 min, 8.5 µM was -26.3 ± 27.3%; the inhibition at 60 min, 8.5 μM is -26.3 ± 27.3%; the inhibition at 60 min, 85 µM is 17.3 ± 5.84%; the inhibition at 60 min, 85 μM was determined as 17.3 ± 5.84%. For the same compound, under setting [1], the inhibition at 60 min, 850 µM was found to be 2.39 ± 22.5% and the inhibition at 60 min, 850 μM is 2.39 ± 22.5%.

For `O=c1cc(-c2ccc(O)cc2)oc2cc(O)cc(O)c12` [apigenin, Apigenin], under setting [1], the inhibition at 60 min, 8.5 µM was -26.7 ± 13.1%; the inhibition at 60 min, 8.5 μM was -26.7 ± 13.1%; the inhibition at 60 min, 85 µM amounted to 54 ± 15.8%; the inhibition at 60 min, 85 μM turned out to be 54 ± 15.8%. Besides, under setting [1], the inhibition at 60 min, 850 µM is -16.1 ± 17.9% and the inhibition at 60 min, 850 μM was -16.1 ± 17.9%.

On to `O=c1cc(-c2ccccc2)oc2cc(O)c(O)c(O)c12` [baicalein], for which, under setting [1], the inhibition at 60 min, 8.5 μM is -99.6 ± 12.8%; the inhibition at 60 min, 85 μM is -125 ± 8.62%; the inhibition at 60 min, 212.5 μM was -146 ± 8.47%.

Consider `O=C(O)[C@H]1O[C@@H](Oc2cc3oc(-c4ccccc4)cc(=O)c3c(O)c2O)[C@H](O)[C@@H](O)[C@@H]1O` [baicalin], for which the “% Inhibition (Mean ± SD)” value is 36.298 ± 9.403% (Table 2, inhibitor 8.5 μM, metabolism of nalbuphine in rat liver microsome); 46.253 ± 22.923% (Table 2, inhibitor 85 μM, metabolism of nalbuphine in rat liver microsome); 44.262 ± 2.879% (Table 2, inhibitor 850 μM, metabolism of nalbuphine in rat liver microsome).

Take `COc1c(O)cc2oc(Oc3ccc(O)cc3)cc(=O)c2c1O` [capillarisin, Capillarisin]: under setting [1], the inhibition at 60 min, 8.5 µM worked out at 111 ± 21.8%; the inhibition at 60 min, 85 µM is 105 ± 21.8%; the inhibition at 60 min, 850 µM came out at 105 ± 19.3%. In addition, the inhibition at 60 min (male, Sprague-Dawley, rat) stood at 111%.

Consider `CC12CCC(CC1)C(C)(C)O2` [cineole, Cineole], for which, under setting [1], the inhibition at 60 min, 8.5 µM is -8.41 ± 18.6%; the inhibition at 60 min, 8.5 μM was -8.41 ± 18.6%; the inhibition at 60 min, 85 µM was -12.1 ± 6.68%; the inhibition at 60 min, 85 μM was -12.1 ± 6.68%. Further, under setting [1], the inhibition at 60 min, 850 µM was found to be 58.9 ± 8.56% and the inhibition at 60 min, 850 μM turned out to be 58.9 ± 8.56%.

Take `O=c1c(-c2ccc(O)cc2)coc2cc(O)ccc12` [daidzein, Daidzein]: under setting [1], the inhibition at 60 min, 8.5 μM was -128 ± 20.8%; the inhibition at 60 min, 85 μM was -138 ± 4.62%; the inhibition at 60 min, 425 μM was -138 ± 2.31%.

On to `O=c1c(-c2ccc(O)cc2)coc2cc(O[C@@H]3O[C@H](CO)[C@@H](O)[C@H](O)[C@H]3O)ccc12` [daidzin, Daidzin], for which, under “male, Sprague-Dawley, rat”, the inhibition at 60 min, 8.5 μM was -29.5 ± 22%; the inhibition at 60 min, 85 μM is -41.5 ± 17%; the inhibition at 60 min, 850 μM was -61 ± 21.1%.
